The values that follow come from patent US4824836A, “Spiro (4,5) decone compounds” (Adir et Compagnie, priority 1987, dated 1989).

For this assay, the system named is Peritoneal rat mastocytes. The assay is described as follows: mastocyte degranulation test in vitro (inhibition of compound 48/80-induced histamine granule release). The format is cell-based. The settings on record: rat peritoneal mastocytes incubated with compound 48/80; dose that inhibits histamine granule release by 50%. The procedure: The compounds of the invention and fenspiride, a prior art product taken as reference substance, were subjected to the mastocyte degranulation test:
Peritoneal rat mastocytes are incubated in vitro in the presence of compound 48/80, which causes histamine granules to be released. The protective effect of the tested compounds is expressed in IC50, that is to say the (molar) dose that inhibits this release by 50%.
Broadly, the IC50 is the concentration that inhibits the measured activity by half. Take `CCCc1c(OCCCN2CCC3(CC2)CNC(=O)O3)ccc(C(C)=O)c1O` [Example 1, 8-[3-(2-propyl-3-hydroxy-4-acetylphenoxy)propyl]-1-oxa-2-oxo-3,8-diaza-spiro[4.5]decane]: the IC50 is 240 µM.

`CCCc1c(OCCN2CCC3(CC2)CNC(=O)O3)ccc(C(C)=O)c1O` [Example 1a, 8-[2-(2-propyl-3-hydroxy-4-acetylphenoxy)ethyl]-1-oxa-2-oxo-3,8-diaza-spiro[4.5]decane]: the IC50 worked out at 200 µM.

For the molecule `CCCc1c(OCCCCN2CCC3(CC2)CNC(=O)O3)ccc(C(C)=O)c1O` [Example 1b, 8-[4-(2-propyl-3-hydroxy-4-acetylphenoxy)butyl]-1-oxa-2-oxo-3,8-diaza-spiro[4.5]decane], the IC50 is 200 µM.

`CCCc1c(OCC(O)CN2CCC3(CC2)CNC(=O)O3)ccc(C(C)=O)c1O` (centres unmarked) [Example 1c, 8-[3-(2-propyl-3-hydroxy-4-acetylphenoxy)-2-hydroxypropyl]-1-oxa-2-oxo-3,8-diaza-spiro[4.5]decane]: the IC50 came to 1000 µM.

Turning to `CCCc1c(OCCCCCN2CCC3(CC2)CNC(=O)O3)ccc(C(C)=O)c1O` [Example 1d, 8-[5-(2-propyl-3-hydroxy-4-acetylphenoxy)pentyl]-1-oxa-2-oxo-3,8-diaza-spiro[4.5]decane], the IC50 stood at 110 µM.

Consider `CCCc1c(OCCCCCCN2CCC3(CC2)CNC(=O)O3)ccc(C(C)=O)c1O` [Example 1e, 8-[6-(2-propyl-3-hydroxy-4-acetylphenoxy)hexyl]-1-oxa-2-oxo-3,8-diaza-spiro[4.5]decane], for which the IC50 was 92 µM.

In the case of `CCCc1c(OCCN2CCC3(CC2)OC(=O)NC3C)ccc(C(C)=O)c1O` (centres unmarked) [Example 1f, 8-[2-(2-propyl-3-hydroxy-4-acetylphenoxy)ethyl]-1-oxa-2-oxo-3,8-diaza-4-methyl-spiro[4.5]decane], the IC50 was 100 µM.

Turning to `C=CCc1c(OCCCN2CCC3(CC2)CNC(=O)O3)ccc(C(C)=O)c1O` [Example 1h, 8-[3-(2-allyl-3-hydroxy-4-acetylphenoxy)propyl]-1-oxa-2-oxo-3,8-diaza-spiro[4.5]decane], the IC50 was 250 µM.

`CCCc1c(OCCCN2CCC3(CC2)CNC(=O)O3)ccc2c(=O)cc(C(=O)OCC)oc12` [Example 1i, 8-[3-(2-ethoxycarbonyl-8-propyl-7-chrom-4-onyloxy)propyl]-1-oxa-2-oxo-3,8-diaza-spiro[4.5]decane]: the IC50 stood at 100 µM.

For `CCCc1c(OCCCN2CCC3(CC2)CNC(=O)O3)ccc2c1OCCC2=O` [Example 1j], the IC50 is 100 µM.

In the case of `CCc1c(OCCCN2CCC3(CC2)CNC(=O)O3)ccc(C(C)=O)c1O` [Example 1k, 8-[3-(2-ethyl-3-hydroxy-4-acetylphenoxy)propyl]-1-oxa-2-oxo-3,8-diaza-spiro[4.5]decane], the IC50 was 830 µM.

On to `CC(=O)c1ccc(OCCCN2CCC3(CC2)CNC(=O)O3)c(CC(C)C)c1O` [Example 1l, 8-[3-(2-isobutyl-3-hydroxy-4-acetylphenoxy)propyl]-1-oxa-2-oxo-3,8-diaza-spiro[4.5]decane], for which the IC50 was found to be 116 µM.

Consider `CCCc1c(OCCCN2CCC3(CC2)OC(=O)NC3C)ccc(C(C)=O)c1O` (centres unmarked) [Example 2, 8-[3-(2-propyl-3-hydroxy-4-acetylphenoxy)propyl]-1-oxa-2-oxo-3,8-diaza-4-methyl-spiro[4.5]decane], for which the 50% inhibitory concentration (IC50) was 200 µM.

`CCCc1c(OCCCN2CCC3(CC2)CNC(=O)O3)ccc2c(=O)cc(C(=O)O)oc12` [Example 3, 8-[3-(2-carboxy-8-propyl-7-chrom-4-onyloxy)propyl]-1-oxa-2-oxo-3,8-diaza-spiro[4.5]decane]: the IC50 turned out to be 1000 µM.

For the molecule `CCCc1c(OCCCN2CCC3(CC2)CN(C(C)=O)C(=O)O3)ccc(C(C)=O)c1OC(C)=O` [Example 4, 8-[3-(2-propyl-3-acetoxy-4-acetylphenoxy)propyl]-1-oxa-2-oxo-3,8-diaza-3-acetyl-spiro[4.5]decane], the 50% inhibitory concentration (IC50) was found to be 720 µM.

For `C=CCc1c(OCCCN2CCC3(CC2)CN(C(C)=O)C(=O)O3)ccc(C(C)=O)c1OC(C)=O` [Example 4a, 8-[3-(2-allyl-3-acetoxy-4-acetylphenoxy)propyl]-1-oxa-2-oxo-3,8-diaza-3-acetyl-spiro[4.5]decane], the IC50 amounted to 2500 µM.

Consider `CCCc1c(OCCCCCN2CCC3(CC2)CN(C(C)=O)C(=O)O3)ccc(C(C)=O)c1OC(C)=O` [Example 4b, 8-[5-(2-propyl-3-acetoxy-4-acetylphenoxy)pentyl]-1-oxa-2-oxo-3,8-diaza-3-acetyl-spiro[4.5]decane], for which the IC50 worked out at 1000 µM.

Consider `CCc1c(OCCCN2CCC3(CC2)CN(C(C)=O)C(=O)O3)ccc(C(C)=O)c1OC(C)=O` [Example 4c, 8-[3-(2-ethyl-3-acetoxy-4-acetylphenoxy)propyl]-1-oxa-2-oxo-3,8-diaza-3-acetyl-spiro[4.5]decane], for which the 50% inhibitory concentration (IC50) is > 1000 µM.

With `CC(=O)Oc1c(C(C)=O)ccc(OCCCN2CCC3(CC2)CN(C(C)=O)C(=O)O3)c1CC(C)C` [Example 4d, 8-[3-(2-isobutyl-3-acetoxy-4-acetylphenoxy)propyl]-1-oxa-2-oxo-3,8-diaza-3-acetyl-spiro[4.5]decane], the IC50 was 730 µM.

As to `C=CCc1c(OCCCN2CCC3(CC2)CN(C(C)=O)C(=O)O3)ccc(C(C)=O)c1O` [Example 5, 8-[3-(2-allyl-3-hydroxy-4-acetylphenoxy)propyl]-1-oxa-2-oxo-3,8-diaza-3-acetyl-spiro[4.5]decane], the IC50 came to 750 µM.

Regarding `CCCc1c(OCCCN2CCC3(CC2)CNC(=O)O3)ccc(C(C)=O)c1OC(C)=O` [Example 6, 8-[3-(2-propyl-3-acetoxy-4-acetylphenoxy)propyl]-1-oxa-2-oxo-3,8-diaza-spiro[4.5]decane], the IC50 was 1200 µM.

Turning to `CCCc1c(OCCCCCN2CCC3(CC2)CNC(=O)O3)ccc(C(C)=O)c1OC(C)=O` [Example 6a, 8-[5-(2-propyl-3-acetoxy-4-acetylphenoxy)pentyl]-1-oxa-2-oxo-3,8-diaza-spiro[4.5]decane], the IC50 is 2000 µM.

`O=C1NCC2(CCN(CCc3ccccc3)CC2)O1` [fenspiride, reference compound]: the “Mastocyte degranulation in vitro - IC50” value is “inactive”.
